# Measurements from PMC8950995, “Identification and Functional Analysis of Glutathione S-Transferases from Sitophilus zeamais in Olfactory Organ” (Insects, 2022).
# Target: T1, SzeaGSTd1 (Sitophilus zeamais, UniProt A0A8F0D7V2)
# T1 sequence (A0A8F0D7V2 22-247): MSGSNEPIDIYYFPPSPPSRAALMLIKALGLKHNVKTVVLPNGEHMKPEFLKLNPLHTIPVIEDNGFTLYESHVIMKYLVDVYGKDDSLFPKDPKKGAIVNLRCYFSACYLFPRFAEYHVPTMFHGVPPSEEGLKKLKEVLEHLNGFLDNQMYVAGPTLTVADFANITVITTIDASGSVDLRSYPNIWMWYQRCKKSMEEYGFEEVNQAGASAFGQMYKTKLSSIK
# Experiment: GSH conjugation, absorbance at […] nm, Michaelis-Menten
# Type: biochemical
# Settings: 1 mM GSH, 100 mM phosphate pH 7.2
structure (smiles),measurement,value
"O=[N+]([O-])c1ccc(Cl)c([N+](=O)[O-])c1 [CDNB, 1-chloro-2,4-dinitrobenzene]",Km,420 ± 40 µM
